US10076116B2, “N-cycloalkyl-N-(biheterocyclymethylene)-(thio)carboxamide derivatives” (BAYER CROPSCIENCE AKTIENGESELLSCHAFT, priority 2013, dated 2018)
One block for each compound: values may come before it.

What was measured:
[1] = test system: Botrytis cinerea; assay: In vivo preventive test on Botrytis cinerea (grey mould); conditions: gherkin; for protection: dose of 500 and 100 ppm of active ingredient
Procedure: Example B: In Vivo Preventive Test Botrvtis Cinerea (Grey Mould) Solvent: 5% by volume of Dimethyl sulfoxide • 10% by volume of Acetone Emulsifier: 1 μL of TWEEN® 80 per mg of active ingredient The active ingredients are made soluble and homogenized in a mixture of Dimethyl sulfoxide/Acetone/TWEEN® 80 and then diluted in water to the desired concentration. The young plants of gherkin are treated by spraying the active ingredient prepared as described above. Control plants are treated only with an aqueous solution of Acetone/Dimethyl sulfoxide/TWEEN® 80. After 24 hours, the plants are contaminated by spraying the leaves with an aqueous suspension of Botrytis cinerea spores. The contaminated gherkin plants are incubated for 4 to 5 days at 17° C. and at 90% relative humidity. The test is evaluated 4 to 5 days after the inoculation. 0% means an efficacy which corresponds to that of the control plants while an efficacy of 100% means that no disease is observed.

[2] = test system: Uromyces appendiculatus; assay: In vivo preventive test on Uromyces appendiculatus (bean rust)
Procedure: Example G: In Vivo Preventive Test on Uromvces Appendiculatus (Bean Rust) Solvent: 5% by volume of Dimethyl sulfoxide • 10% by volume of Acetone Emulsifier: 1 μL of TWEEN® 80 per mg of active ingredient The active ingredients are made soluble and homogenized in a mixture of Dimethyl sulfoxide/Acetone/TWEEN® 80 and then diluted in water to the desired concentration. The young plants of bean are treated by spraying the active ingredient prepared as described above. Control plants are treated only with an aqueous solution of Acetone/Dimethyl sulfoxide/TWEEN® 80. After 24 hours, the plants are contaminated by spraying the leaves with an aqueous suspension of Uromyces appendiculatus spores. The contaminated bean plants are incubated for 24 hours at 20° C. and at 100% relative humidity and then for 10 days at 20° C. and at 70-80% relative humidity. The test is evaluated 11 days after the inoculation. 0% means an efficacy which corresponds to that of the control plants while an efficacy of 100% means that no disease is observed.

[3] = log P by HPLC on reversed-phase column (C 18), EEC Directive 79/831 Annex V.A8; format: physicochemical; conditions: HPLC C 18, 40° C., 0.1% aqueous formic acid and acetonitrile, gradient 10% to 90% acetonitrile
Procedure: In table 1, the log P values were determined in accordance with EEC Directive 79/831 Annex V.A8 by HPLC (High Performance Liquid Chromatography) on a reversed-phase column (C 18), using the method described below: Temperature: 40° C.; Mobile phases: 0.1% aqueous formic acid and acetonitrile; linear gradient from 10% acetonitrile to 90% acetonitrile. Calibration was carried out using unbranched alkan-2-ones (comprising 3 to 16 carbon atoms) with known log P values (determination of the log P values by the retention times using linear interpolation between two successive alkanones). lambda-max-values were determined using UV-spectra from 200 nm to 400 nm and the peak values of the chromatographic signals.

[4] = test system: Puccinia recondita; assay: In vivo preventive test on Puccinia recondita (brown rust on wheat)
Procedure: Example C: In Vivo Preventive Test on Puccinia recondita (Brown Rust on Wheat) […]
The young plants of wheat are treated by spraying the active ingredient prepared as described above. […]
After 24 hours, the plants are contaminated by spraying the leaves with an aqueous suspension of Puccinia recondita spores. The contaminated wheat plants are incubated for 24 hours at 20° C. and at 100% relative humidity and then for 10 days at 20° C. and at 70-80% relative humidity.
The test is evaluated 11 days after the inoculation. 0% means an efficacy which corresponds to that of the control plants while an efficacy of 100% means that no disease is observed.

[5] = dose 100 ppm, wheat, compounds of this patent
[6] = dose 500 ppm, wheat, compounds of this patent
[7] = very similar conditions, formulated in DMF with 2% of alkylarylpolyglycolether
[8] = in very similar conditions, dose of 500 and 100 ppm, analogues of WO2012/059497
[9] = dose 500 ppm, in very similar conditions, prior-art analogues
[10] = wheat, compounds of this patent
[11] = dose 125 ppm, in very similar conditions, prior-art analogues
[12] = in very similar conditions, dose of 500 and 125 ppm, analogues of WO2009/016222 and WO2008/037789

Structure (SMILES): Cn1nc(C(F)F)c(C(=O)N(Cc2ncc(C(F)(F)F)cc2-c2cccnc2)C2CC2)c1F [CMP2, N-cyclopropyl-3-(difluoromethyl)-5-fluoro-1-methyl-N-{[5-(trifluoromethyl)-3,3′-bipyridin-2-yl]methyl}-1H-pyrazole-4-carboxamide, reference compound]
Efficacy (Table B1) ([1]; dose 100 ppm): 0% | Efficacy (Table B1) ([1]; dose 500 ppm): 0% | protection [1]: no protection | Efficacy (Table G1) ([2]; dose 100 ppm): 0% | Efficacy (Table G1) ([2]; dose 500 ppm): 0%

logP [3]: 4.67
Structure (SMILES): Cc1cscc1-c1cc(C(F)(F)F)cnc1CN(C(=S)c1c(C(F)F)nn(C)c1F)C1CC1 [I.37]
Efficacy (Table C2) [4, 5]: 86% | Efficacy (Table C2) [4, 6]: 93%

logP [3]: 3.78
Structure (SMILES): Cn1nc(C(F)F)c(C(=O)N(Cc2ncc(C(F)(F)F)cc2-c2ccnc3cc(Cl)ccc23)C2CC2)c1F [I.29]
Efficacy (Table B1) ([1]; dose 100 ppm): 39% | Efficacy (Table B1) ([1]; dose 500 ppm): 83% | Efficacy (Table G1) ([2]; dose 100 ppm): 67% | Efficacy (Table G1) ([2]; dose 500 ppm): 100%

Structure (SMILES): Cc1nc(-c2ccc(Cl)cc2)sc1CN(C(=O)c1c(C(F)F)nn(C)c1F)C1CC1 [167 from WO2012/059497, N-{[2-(4-chlorophenyl)-4-methyl-1,3-thiazol-5-yl]methyl}-N-cyclopropyl-3-(difluoromethyl)-5-fluoro-1-methyl-1H-pyrazole-4-carboxamide]
Efficacy at 100 ppm (Table C1) [4, 7]: 0% | Efficacy at 500 ppm (Table C1) [4, 7]: 0% | protection [4, 8]: good (at least 80%) to no protection

Structure (SMILES): Cn1cc(C(=O)N(Cc2nc(-c3ccc(Cl)cc3)cs2)C2CC2)c(C(F)(F)F)c1 [28 from WO2008/015189, N-{[4-(4-chlorophenyl)-1,3-thiazol-2-yl]methyl}-N-cyclopropyl-1-methyl-4-(trifluoromethyl)-1H-pyrrole-3-carboxamide]
Efficacy (Table C3) [4, 9]: 11%

logP [3]: 3.89
Structure (SMILES): COc1ccsc1-c1cc(C(F)(F)F)cnc1CN(C(=O)c1c(C(F)F)nn(C)c1F)C1CC1 [I.23]
Efficacy at 100 ppm (Table C1) [4, 10]: 98% | Efficacy at 500 ppm (Table C1) [4, 10]: 100%

logP [3]: 3.42
Structure (SMILES): Cn1cc(C(=O)N(Cc2ncc(C(F)(F)F)cc2-c2ccsc2)C2CC2)c(C(F)F)n1 [I.41]
Efficacy (Table C2) [4, 5]: 79% | Efficacy (Table C2) [4, 6]: 93%

logP [3]: 4.35
Structure (SMILES): Cc1ccc(-c2cc(C(F)(F)F)cnc2CN(C(=O)c2c(C(F)F)nn(C)c2F)C2CC2)s1 [I.21]
Efficacy at 100 ppm (Table C1) [4, 10]: 89% | Efficacy at 500 ppm (Table C1) [4, 10]: 98%

logP [3]: 3.89
Structure (SMILES): Cn1nc(C(F)F)c(C(=O)N(Cc2ncc(C(F)(F)F)cc2-c2cccs2)C2CC2)c1F [I.19]
Efficacy (Table B1) ([1]; dose 100 ppm): 100% | Efficacy (Table B1) ([1]; dose 500 ppm): 95% | Efficacy (Table G1) ([2]; dose 100 ppm): 100% | Efficacy (Table G1) ([2]; dose 500 ppm): 100%

Structure (SMILES): Cc1nn(C)c(F)c1C(=O)N(Cc1cn(-c2ccccc2)c2ccccc12)C1CC1 [13 from WO-2009/016222, N-cyclopropyl-5-fluoro-1,3-dimethyl-N-[(1-phenyl-1H-indol-3-yl)methyl]-1H-pyrazole-4-carboxamide]
Efficacy (Table C2) [4, 11]: 17% | Efficacy (Table C2) [4, 9]: 78% | protection [4, 12]: good (at least 70%) to no protection

Structure (SMILES): Cc1nc(-c2ccc(Cl)cc2)sc1CN(C(=O)c1c(C)nn(C)c1F)C1CC1 [17 from WO2008/015189, N-{[2-(4-chlorophenyl)-4-methyl-1,3-thiazol-5-yl]methyl}-N-cyclopropyl-5-fluoro-1,3-dimethyl-1H-pyrazole-4-carboxamide]
Efficacy (Table C3) [4, 9]: 10%

Structure (SMILES): Cn1cc(C(=O)N(Cc2ccc(Oc3ccccc3)nc2)C2CC2)c(C(F)F)n1 [36 from WO-2008/037789, N-cyclopropyl-3-(difluoromethyl)-1-methyl-N-[(6-phenoxypyridin-3-yl)methyl]-1H-pyrazole-4-carboxamide]
Efficacy (Table C2) [4, 11]: 0% | Efficacy (Table C2) [4, 9]: 0% | protection [4, 12]: good (at least 70%) to no protection

logP [3]: 4.16
Structure (SMILES): Cn1nc(C(F)F)c(C(=O)N(Cc2ncc(C(F)(F)F)cc2-c2coc3ccccc23)C2CC2)c1F [I.31]
Efficacy (Table B1) ([1]; dose 100 ppm): 100% | Efficacy (Table B1) ([1]; dose 500 ppm): 100% | Efficacy at 100 ppm (Table C1) [4, 10]: 88% | Efficacy at 500 ppm (Table C1) [4, 10]: 94% | Efficacy (Table G1) ([2]; dose 100 ppm): 78% | Efficacy (Table G1) ([2]; dose 500 ppm): 97%

Structure (SMILES): Cc1sc(-c2ccccc2)cc1C(C)N(C(=O)c1c(C(F)F)nn(C)c1F)C1CC1 (centres unmarked) [147 from WO2012/059497, N-cyclopropyl-3-(difluoromethyl)-5-fluoro-1-methyl-N-[1-(2-methyl-5-phenyl-3-thienyl)ethyl]-1H-pyrazole-4-carboxamide]
Efficacy at 100 ppm (Table C1) [4, 7]: 0% | Efficacy at 500 ppm (Table C1) [4, 7]: 30% | protection [4, 8]: good (at least 80%) to no protection

Structure (SMILES): CCc1nn(C)c(F)c1C(=O)N(Cc1cn(-c2ccccc2)c2ccccc12)C1CC1 [29 from WO-2009/016222, N-cyclopropyl-3-ethyl-5-fluoro-1-methyl-N-[(1-phenyl-1H-indol-3-yl)methyl]-1H-pyrazole-4-carboxamide]
Efficacy (Table C2) [4, 11]: 22% | Efficacy (Table C2) [4, 9]: 67% | protection [4, 12]: good (at least 70%) to no protection

Structure (SMILES): Cn1cc(C(=O)N(Cc2cn(-c3ccccc3)c3ccccc23)C2CC2)c(C(F)F)n1 [18 from WO-2009/016222, N-cyclopropyl-3-(difluoromethyl)-1-methyl-N-[(1-phenyl-1H-indol-3-yl)methyl]-1H-pyrazole-4-carboxamide]
Efficacy (Table C2) [4, 11]: 0% | Efficacy (Table C2) [4, 9]: 0% | protection [4, 12]: good (at least 70%) to no protection

logP [3]: 2.88
Structure (SMILES): Cc1nc(C)c(-c2sccc2CN(C(=O)c2c(C(F)F)nn(C)c2F)C2CC2)s1 [I.11]
efficacy ([4]; 500 ppm of active ingredient, wheat plants, evaluated 11 days after inoculation): at least 60% | Efficacy (Table C3) ([4]; dose 500 ppm, wheat, compound of this patent): 69%

Structure (SMILES): Cn1nc(C(F)F)c(C(=O)N(Cc2ncc(C(F)(F)F)cc2-c2ccncc2)C2CC2)c1F [CMP3, N-cyclopropyl-3-(difluoromethyl)-5-fluoro-1-methyl-N-{[5-(trifluoromethyl)-3,4′-bipyridin-2-yl]methyl}-1H-pyrazole-4-carboxamide, reference compound]
Efficacy (Table B1) ([1]; dose 100 ppm): 0% | Efficacy (Table B1) ([1]; dose 500 ppm): 0% | protection [1]: no protection | Efficacy (Table G1) ([2]; dose 100 ppm): 0% | Efficacy (Table G1) ([2]; dose 500 ppm): 17%

Structure (SMILES): Cn1nc(C(F)F)c(C(=O)N(Cc2cc3ccccc3n2-c2ccccc2)C2CC2)c1F [155 from WO2012/059497, N-cyclopropyl-3-(difluoromethyl)-5-fluoro-1-methyl-N-[(1-phenyl-1H-indol-2-yl)methyl]-1H-pyrazole-4-carboxamide]
Efficacy at 100 ppm (Table C1) [4, 7]: 0% | Efficacy at 500 ppm (Table C1) [4, 7]: 20% | protection [4, 8]: good (at least 80%) to no protection
